One experiment relates to V79. Nature of the experiment: Mammalian cell cytotoxicity test in chinese hamster V79 cells (clonogenic cytotoxicity). The format is functional, cell-based. The settings on record: Cricetulus griseus, V79; read-out: IC50.
A short description of experiment [1]: Antibacterial activity against five Gram-negative bacteria. It counts as functional. The settings on record: read-out: MIC.

Values after ≈ are worked out from the molar mass of the structure shown.

The IC50 is the concentration that gives 50% inhibition. Usually MIC stands for the lowest concentration found to suppress growth.

On to `CC1(CN)CCN(c2c(F)cc3c(=O)c(C(=O)O)cn(C4CC4)c3c2C(F)(F)F)C1` (centres undefined), for which the IC50 with V79 came to 110 µg/mL (≈ 257 µM). In experiment [1], the MIC was determined as 1 µg/mL (≈ 2.34 µM).
As for `NC1CCCN(c2c(F)cc3c(=O)c(C(=O)O)cn(C4CC4)c3c2Cl)C1` (centres undefined), the IC50 with V79 came to 24 µg/mL (≈ 63.2 µM). The minimal inhibitory concentration (MIC) in experiment [1] stood at 0.07 µg/mL (≈ 0.184 µM).
Regarding `NC1CCCN(c2nc3c(cc2F)c(=O)c(C(=O)O)cn3C2CC2)C1` (centres undefined), in the experiment on V79, the IC50 turned out to be 100 µg/mL (≈ 289 µM). Besides, the MIC in experiment [1] is 0.4 µg/mL (≈ 1.15 µM).
As for `Nc1c(N2CCC(N)C2)c(F)cc2c(=O)c(C(=O)O)cn(C3CC3)c12` (centres undefined), in the experiment with V79, the IC50 is 260 µg/mL (≈ 751 µM). Moreover, in experiment [1], the MIC came to 0.53 µg/mL (≈ 1.53 µM).
In the case of `NCC1CCN(c2c(F)cc3c(=O)c(C(=O)O)cn(C4CC4)c3c2Cl)C1` (centres undefined), the IC50 in the experiment with V79 amounted to 8 µg/mL (≈ 21.1 µM). For the same compound, in experiment [1], the MIC was 0.06 µg/mL (≈ 0.158 µM).
As to `CC1CN(c2c(F)cc3c(=O)c(C(=O)O)cn(C4CC4)c3c2C(F)(F)F)CC(C)N1` (centres undefined), the IC50 with V79 was greater than 500 µg/mL. Further, the MIC in experiment [1] was found to be 0.91 µg/mL (≈ 2.13 µM).
The matching figures for `CSc1c(F)c(N2CCC(N)C2)cc2c1c(=O)c(C(=O)O)cn2C1CC1` (centres undefined): 92 µg/mL (≈ 244 µM) and greater than 1.58 µg/mL.
The like results for `COc1c(N2CCCC2)c(F)cc2c(=O)c(C(=O)O)cn(C3CC3)c12` were, in that order, 150 µg/mL (≈ 433 µM) and 0.3 µg/mL (≈ 0.866 µM).
The like results for `NC1CCN(c2c(F)cc3c(=O)c(C(=O)O)cn(-c4ccc(F)cc4F)c3c2Cl)C1` (centres undefined) were, in that order, 89 µg/mL (≈ 203 µM) and 0.23 µg/mL (≈ 0.525 µM).
As to `CNCC1(C)CCN(c2c(F)cc3c(=O)c(C(=O)O)cn(C4CC4)c3c2Cl)C1` (centres undefined), the concentration for half-maximal inhibition (IC50) in the experiment with V79 was 23 µg/mL (≈ 56.4 µM). Further, the MIC in experiment [1] came out at 0.26 µg/mL (≈ 0.637 µM).
Consider `CCNCC1CCN(c2c(F)cc3c(=O)c(C(=O)O)cn(C4CC4)c3c2[N+](=O)[O-])C1` (centres undefined), for which the half-inhibitory concentration (IC50) in the experiment with V79 was determined as 67 µg/mL (≈ 160 µM). The MIC in experiment [1] was 1.05 µg/mL (≈ 2.51 µM).
The matching figures for `O=C(O)c1cn(C2CC2)c2c(C(F)(F)F)c(N3CCCC3)c(F)cc2c1=O`: 280 µg/mL (≈ 729 µM) and 12.5 µg/mL (≈ 32.5 µM).
Consider `CC1(n2cc(C(=O)O)c(=O)c3cc(F)c(N4CCC(N)C4)c(F)c32)CC1` (centres undefined), for which the IC50 with V79 was found to be 160 µg/mL (≈ 440 µM). In addition, the MIC in experiment [1] stood at 0.3 µg/mL (≈ 0.826 µM).
In the case of `NCC1CCN(c2c(F)cc3c(=O)c(C(=O)O)cn(C4CC4)c3c2C(F)(F)F)C1` (centres undefined), the IC50 in the experiment with V79 came to 38 µg/mL (≈ 91.9 µM). Moreover, the MIC in experiment [1] is 0.52 µg/mL (≈ 1.26 µM).
The matching figures for `CNCC1(C)CCN(c2cc3c(cc2F)c(=O)c(C(=O)O)cn3C2CC2)C1` (centres undefined): 205 µg/mL (≈ 549 µM) and 0.4 µg/mL (≈ 1.07 µM).
As to `O=C(O)c1cn(C2CC2)c2c(F)c(N3CCCC3)c(F)cc2c1=O`, the IC50 in the experiment with V79 is 120 µg/mL (≈ 359 µM). In addition, in experiment [1], the MIC came out at 0.1 µg/mL (≈ 0.299 µM).
Turning to `CC1CN(c2c(F)cc3c(=O)c(C(=O)O)cn(-c4ccc(F)cc4F)c3c2C(F)(F)F)CCN1` (centres undefined), the concentration for half-maximal inhibition (IC50) in the experiment with V79 was greater than 500 µg/mL. In addition, the MIC in experiment [1] amounted to 4.14 µg/mL (≈ 8.53 µM).
The matching figures for `CCNCC1CCN(c2cc3c(c(N)c2F)c(=O)c(C(=O)O)cn3C2CC2)C1` (centres undefined): 61 µg/mL (≈ 157 µM) and 0.35 µg/mL (≈ 0.901 µM).
The matching figures for `CCNCC1CCN(c2nc3c(cc2F)c(=O)c(C(=O)O)cn3C2CC2)C1` (centres undefined): 160 µg/mL (≈ 427 µM) and 0.21 µg/mL (≈ 0.561 µM).
The matching figures for `NCC1CCN(c2cc3c(cc2F)c(=O)c(C(=O)O)cn3C2CC2)C1` (centres undefined): 81 µg/mL (≈ 235 µM) and 0.2 µg/mL (≈ 0.579 µM).
In the case of `O=C(O)c1cn(-c2ccc(F)cc2F)c2cc(N3CCNCC3)c(F)cc2c1=O`, the 50% inhibitory concentration (IC50) in the experiment on V79 is greater than 500 µg/mL. In addition, the MIC in experiment [1] worked out at 0.11 µg/mL (≈ 0.273 µM).
The like results for `CCNCC1CCN(c2cc3c(cc2F)c(=O)c(C(=O)O)cn3CC)C1` (centres undefined) were, in that order, 310 µg/mL (≈ 858 µM) and 0.56 µg/mL (≈ 1.55 µM).
The matching figures for `CCn1cc(C(=O)O)c(=O)c2cc(F)c(N3CCC(N)C3)c(F)c21` (centres undefined): 300 µg/mL (≈ 889 µM) and 0.12 µg/mL (≈ 0.356 µM).
As to `Cc1c(F)c(N2CCC(N)C2)c(F)c2c1c(=O)c(C(=O)O)cn2C1CC1` (centres undefined), the IC50 in the experiment on V79 turned out to be 11 µg/mL (≈ 30.3 µM). The MIC in experiment [1] came out at 0.02 µg/mL (≈ 0.055 µM).
As to `NC1CCN(c2c(F)cc3c(=O)c(C(=O)O)cn(C4CC4)c3c2F)CC1`, the 50% inhibitory concentration (IC50) with V79 was 23 µg/mL (≈ 63.3 µM). In experiment [1], the MIC is 0.2 µg/mL (≈ 0.55 µM).
The like results for `COc1c(F)c(N2CCC(N)C2)c(Cl)c2c1c(=O)c(C(=O)O)cn2C1CC1` (centres undefined) were, in that order, greater than 500 µg/mL and 2.08 µg/mL (≈ 5.25 µM).
Turning to `CCNCC1CCN(c2c(F)cc3c(=O)c(C(=O)O)cn(CCF)c3c2F)C1` (centres undefined), the IC50 in the experiment with V79 was greater than 500 µg/mL. Also, the MIC in experiment [1] amounted to 0.4 µg/mL (≈ 1.01 µM).

(Values after ChEMBL document CHEMBL1125556, “Fluoroquinolones: relationships between structural variations, mammalian cell cytotoxicity, and antimicrobial activity” (J Med Chem, 1992).)
